Assay results reported in patent US20230321171A1, “ANTI-COCCIDIAL COMPOSITION COMPRISING MANGOSTEEN AND USES THEREOF” (CJ CHEILJEDANG CORPORATION, priority 2020, published 2023).

Key:
Type in all cases: cell-based
Eimeria acervulina = assay: Protozoan (sporozoite) direct killing ability, Eimeria acervulina; details: for Eimeria acervulina protozoal death rate (%): compared to PBS-treated negative control group; for Minimum concentration for killing 100% protozoa (ppm), Eimeria acervulina: tested 1 to 500 ppm
Method: (§1) In the present example, protozoan (sporozoite) direct killing ability evaluation was conducted against 3 representative Eimeria kinds known to be infected in most farms (E. tenella, E. acervulina, E. maxima).
(§2) A certain amount of oocysts of each protozoan was put in a tube containing glass beads and pulverized, and then to remove the crushed oocyst cell wall and other debris, internal sporocysts were purified using the percoll density gradient, and washed with PBS solution. A reagent comprising sodium taurocholic acid (Sigma aldrich, USA) and trypsin (Gibco, USA), respectively, was treated to sporocysts of Eimeria tenella, Eimeria acervulina and Eimeria maxima for excystation and they were incubated, and then they were washed with PBS solution once and protozoa were obtained.
(§3) After reacting the mangosteen pericarp extract, epicatechin, alpha-mangostin, xanthone and anticoccidial agents, salinomycin and diclazuril (hereinafter, material) with 3 kinds of Eimeria protozoa at various concentrations of 1 to 500 ppm, respectively, only alive protozoa (sporozoites) were counted through microscopic observation. Then, the death rate (%) of the protozoa when each material was treated compared to the PBS-treated negative control group was calculated and shown in Table 8 to Table 10 and Table 12, respectively, and the minimum concentration which directly killed the protozoa by 100% was shown in Table 11 below.

Eimeria tenella = assay: Protozoan (sporozoite) direct killing ability, Eimeria tenella; details: for Eimeria tenella protozoal death rate (%): compared to PBS-treated negative control group
Method: as §1, §2, §3

Eimeria maxima = assay: Protozoan (sporozoite) direct killing ability, Eimeria maxima; details: for Eimeria maxima protozoal death rate (%): compared to PBS-treated negative control group
Method: as §1, §2, §3

How did the “Eimeria acervulina protozoal death rate (%)” value (Eimeria acervulina; 1 ppm) turn out when `O=c1c2ccccc2oc2ccccc12` [Xanthone, xanthone] was run?
The value was 0%.

What about the “Eimeria acervulina protozoal death rate (%)” value (Eimeria acervulina; 5 ppm) of the same compound?
The value was 0%.

What about the “Eimeria acervulina protozoal death rate (%)” value (Eimeria acervulina; 10 ppm) of the same compound?
The value was 0%.

And the “Eimeria acervulina protozoal death rate (%)” value (Eimeria acervulina; 50 ppm)?
Its value is 0%.

And the “Eimeria acervulina protozoal death rate (%)” value (Eimeria acervulina; 100 ppm)?
The value was 0%.

What about the “Eimeria acervulina protozoal death rate (%)” value (Eimeria acervulina; 125 ppm) of the same compound?
Its value is 0%.

What about the “Eimeria acervulina protozoal death rate (%)” value (Eimeria acervulina; 250 ppm) of the same compound?
The value was 11%.

What about the “Eimeria acervulina protozoal death rate (%)” value (Eimeria acervulina; 500 ppm) of the same compound?
The value was 25%.

What about the “Minimum concentration for killing 100% protozoa (ppm), Eimeria acervulina” value (Eimeria acervulina) of the same compound?
Its value is greater than 500 ppm.

What about the “Minimum concentration for killing 100% protozoa (ppm), Eimeria acervulina” value (Eimeria acervulina; listed as xanthone) of the same compound?
Its value is greater than 500 ppm.

What about the “Eimeria tenella protozoal death rate (%)” value (Eimeria tenella; 1 ppm) of the same compound?
The value was 0%.

And the “Eimeria tenella protozoal death rate (%)” value (Eimeria tenella; 5 ppm)?
The value was 0%.

And the “Eimeria tenella protozoal death rate (%)” value (Eimeria tenella; 10 ppm)?
Its value is 0%.

And the “Eimeria tenella protozoal death rate (%)” value (Eimeria tenella; 50 ppm)?
The value was 0%.

And the “Eimeria tenella protozoal death rate (%)” value (Eimeria tenella; 100 ppm)?
The value was 0%.

And the “Eimeria tenella protozoal death rate (%)” value (Eimeria tenella; 125 ppm)?
The value was 10%.

And the “Eimeria tenella protozoal death rate (%)” value (Eimeria tenella; 250 ppm)?
Its value is 0%.

What about the “Eimeria tenella protozoal death rate (%)” value (Eimeria tenella; 500 ppm) of the same compound?
The value was 15%.

And the “Minimum concentrataion of killing protozoa 100% (ppm)” value (Eimeria tenella; Eimeria tenella, Table 15, method similar to Example 2-1)?
Its value is no less than 500 ppm.

What about the “Minimum concentration for killing 100% protozoa (ppm), Eimeria tenella” value (Eimeria tenella; tested 1 to 500 ppm) of the same compound?
The value was greater than 500 ppm.

What about the “Eimeria maxima protozoal death rate (%)” value (Eimeria maxima; 1 ppm) of the same compound?
The value was 0%.

And the “Eimeria maxima protozoal death rate (%)” value (Eimeria maxima; 5 ppm)?
The value was 0%.

What about the “Eimeria maxima protozoal death rate (%)” value (Eimeria maxima; 10 ppm) of the same compound?
The value was 0%.

And the “Eimeria maxima protozoal death rate (%)” value (Eimeria maxima; 50 ppm)?
The value was 0%.

What about the “Eimeria maxima protozoal death rate (%)” value (Eimeria maxima; 100 ppm) of the same compound?
The value was 0%.

What about the “Eimeria maxima protozoal death rate (%)” value (Eimeria maxima; 125 ppm) of the same compound?
Its value is 0%.

And the “Eimeria maxima protozoal death rate (%)” value (Eimeria maxima; 250 ppm)?
The value was 5%.

What about the “Eimeria maxima protozoal death rate (%)” value (Eimeria maxima; 500 ppm) of the same compound?
Its value is 12%.

And the “Minimum concentration for killing 100% protozoa (ppm), Eimeria maxima” value (Eimeria maxima; tested 1 to 500 ppm)?
The value was greater than 500 ppm.
